Data from US20200325154A1, “ANTIBACTERIAL BIAROMATIC DERIVATIVES WITH OXETANE-3-YLOXY SUBSTITUTION” (priority 2016, published 2020).
Values after ≈ are worked out from the molar mass of the structure shown.

Tests used:
Assay in all cases: Bacterial growth minimal inhibitory concentration (microdilution, cation-adjusted Mueller-Hinton Broth)
E. faecalis ATCC 29212 = format: cell-based, Enterococcus faecalis; settings: quinolone-sensitive strain; for MIC: Enterococcus faecalis, ATCC29212, Table 1
Protocol: (§1) Minimal Inhibitory Concentrations (MICs; mg/L) were determined in cation-adjusted Mueller-Hinton Broth by a microdilution method following the description given in “Methods for Dilution Antimicrobial Susceptibility Tests for Bacteria that Grow Aerobically”, Approved standard, 7^1 ed., Clinical and Laboratory Standards Institute (CLSI) Document M7-A7, Wayne, Pa., USA (2006).
(§2) All Example compounds were tested against relevant Gram positive and Gram negative bacteria. […] Staphylococcus aureus A798 and Acinetobacter baumannii T6474 are multiply-resistant strains (in particular quinolone-resistant), whereas Moraxella catarrhalis A894 and Enterococcus faecalis ATCC29212 are quinolone-sensitive strains.

A. baumannii T6474 = format: cell-based, Acinetobacter baumannii; settings: for MIC: Acinetobacter baumannii, T6474, Table 1, multiply-resistant (quinolone-resistant) strain
Protocol: as §1, §2

S. aureus A798 = format: cell-based, Staphylococcus aureus; settings: for MIC: Staphylococcus aureus, A798, Table 1, multiply-resistant (quinolone-resistant) strain
Protocol: as §1, §2

M. catarrhalis A894 = format: cell-based, Moraxella catarrhalis; settings: quinolone-sensitive strain; for MIC: Moraxella catarrhalis, A894, Table 1
Protocol: as §1, §2

[1] = Table 2, comparison with Example 50 of WO 2014/170821
[2] = Table 2, comparison with Example 50 of WO 2014/170821, multiply-resistant strain

MIC (E. faecalis ATCC 29212) [µg/mL] | MIC (A. baumannii T6474) [µg/mL] | MIC (S. aureus A798) [µg/mL] | MIC (M. catarrhalis A894) [µg/mL] | MIC for E. faecalis ATCC 29212 (E. faecalis ATCC 29212; [1]) [µg/mL] | MIC for A. baumannii T6474 (A. baumannii T6474; [2]) [µg/mL] | MIC for S. aureus A798 (S. aureus A798; [2]) [µg/mL] | MIC for M. catarrhalis A894 (M. catarrhalis A894; [1]) [µg/mL] | SMILES
0.5 (≈ 0.962 µM) | 0.25 (≈ 0.481 µM) | 0.25 (≈ 0.481 µM) | 0.063 (≈ 0.121 µM) | – | – | – | – | O=C1COc2ccc(N3C[C@@H](CCNCc4cc(-c5nccc(OC6COC6)n5)ccn4)OC3=O)nc2N1 [Example 10, 6-{(R)-5-[2-({4-[4-(oxetan-3-yloxy)-pyrimidin-2-yl]-pyridin-2-ylmethyl}-amino)-ethyl]-2-oxo-oxazolidin-3-yl}-4H-pyrido[3,2-b][1,4]oxazin-3-one]
0.5 (≈ 0.968 µM) | 1 (≈ 1.94 µM) | 0.125 (≈ 0.242 µM) | ≤ 0.031 | 0.5 | 1 | 0.125 | ≤0.031 | O=C1COc2ccc(N3C[C@H](CCNCc4cccc(-c5cccc(OC6COC6)c5)c4)OC3=O)nc2N1 [Example 9, 6-[(S)-5-(2-{[3′-(oxetan-3-yloxy)-biphenyl-3-ylmethyl]-amino}-ethyl)-2-oxo-oxazolidin-3-yl]-4H-pyrido[3,2-b][1,4]oxazin-3-one]
0.25 (≈ 0.481 µM) | 0.125 (≈ 0.241 µM) | ≤ 0.031 | ≤ 0.031 | – | – | – | – | O=C1COc2ccc(N3C[C@H](CCNCc4cc(-c5nccc(OC6COC6)n5)ccn4)OC3=O)nc2N1 [Example 4, 6-{(S)-5-[2-({4-[4-(oxetan-3-yloxy)-pyrimidin-2-yl]-pyridin-2-ylmethyl}-amino)-ethyl]-2-oxo-oxazolidin-3-yl}-4H-pyrido[3,2-b][1,4]oxazin-3-one]
0.5 (≈ 0.962 µM) | 0.5 (≈ 0.962 µM) | ≤ 0.031 | ≤ 0.031 | – | – | – | – | O=C1COc2ccc(N3C[C@H](CCNCc4ccnc(-c5cncc(OC6COC6)n5)c4)OC3=O)nc2N1 [Example 7, 6-{(S)-5-[2-({2-[6-(oxetan-3-yloxy)-pyrazin-2-yl]-pyridin-4-ylmethyl}-amino)-ethyl]-2-oxo-oxazolidin-3-yl}-4H-pyrido[3,2-b][1,4]oxazin-3-one]
2 (≈ 3.73 µM) | 1 (≈ 1.87 µM) | 0.25 (≈ 0.467 µM) | 0.25 (≈ 0.467 µM) | – | – | – | – | O=C1COc2ccc(N3C[C@H](CCNCc4nccc(-c5cncc(OC6COC6)n5)c4O)OC3=O)nc2N1 [Example 16, 6-{(S)-5-[2-({3-Hydroxy-4-[6-(oxetan-3-yloxy)-pyrazin-2-yl]-pyridin-2-ylmethyl}-amino)-ethyl]-2-oxo-oxazolidin-3-yl}-4H-pyrido[3,2-b][1,4]oxazin-3-one]
4 (≈ 7.47 µM) | 4 (≈ 7.47 µM) | 1 (≈ 1.87 µM) | 0.5 (≈ 0.934 µM) | – | – | – | – | O=C1COc2ccc(N3C[C@H](CCNCc4cc(-c5cncc(OC6COC6)n5)c(O)cn4)OC3=O)nc2N1 [Example 14, 6-{(S)-5-[2-({5-hydroxy-4-[6-(oxetan-3-yloxy)-pyrazin-2-yl]-pyridin-2-ylmethyl}-amino)-ethyl]-2-oxo-oxazolidin-3-yl}-4H-pyrido[3,2-b][1,4]oxazin-3-one]
0.25 (≈ 0.467 µM) | 0.25 (≈ 0.467 µM) | ≤ 0.031 | ≤ 0.031 | – | – | – | – | O=C1COc2ccc(N3C[C@H](CCNCc4cc(-c5nccc(OC6COC6)n5)c(O)cn4)OC3=O)nc2N1 [Example 15, 6-{(S)-5-[2-({5-hydroxy-4-[4-(oxetan-3-yloxy)-pyrimidin-2-yl]-pyridin-2-ylmethyl}-amino)-ethyl]-2-oxo-oxazolidin-3-yl}-4H-pyrido[3,2-b][1,4]oxazin-3-one]
0.25 (≈ 0.481 µM) | 0.125 (≈ 0.241 µM) | ≤ 0.031 | ≤ 0.031 | – | – | – | – | O=C1COc2ccc(N3C[C@H](CCNCc4cc(-c5cncc(OC6COC6)n5)ccn4)OC3=O)nc2N1 [Example 1, 6-{(S)-5-[2-({4-[6-(oxetan-3-yloxy)-pyrazin-2-yl]-pyridin-2-ylmethyl}-amino)-ethyl]-2-oxo-oxazolidin-3-yl}-4H-pyrido[3,2-b][1,4]oxazin-3-one]
0.5 (≈ 0.966 µM) | 0.125 (≈ 0.242 µM) | ≤ 0.031 | ≤ 0.031 | – | – | – | – | O=C1COc2ccc(-n3cc(CCNCc4cc(-c5nccc(OC6COC6)n5)ccn4)oc3=O)nc2N1 [Example 13, 6-{5-[2-({4-[4-(oxetan-3-yloxy)-pyrimidin-2-yl]-pyridin-2-ylmethyl}-amino)-ethyl]-2-oxo-oxazol-3-yl}-4H-pyrido[3,2-b][1,4]oxazin-3-one]
8 (≈ 15.4 µM) | 8 (≈ 15.4 µM) | 8 (≈ 15.4 µM) | 0.5 (≈ 0.962 µM) | – | – | – | – | O=C1COc2ccc(N3C[C@H](CCNCc4cc(-c5cc(OC6COC6)cnn5)ccn4)OC3=O)nc2N1 [Example 5, 6-{(S)-5-[2-({4-[5-(oxetan-3-yloxy)-pyridazin-3-yl]-pyridin-2-ylmethyl}-amino)-ethyl]-2-oxo-oxazolidin-3-yl}-4H-pyrido[3,2-b][1,4]oxazin-3-one]
0.25 (≈ 0.483 µM) | 0.125 (≈ 0.242 µM) | ≤ 0.031 | ≤ 0.031 | – | – | – | – | O=C1COc2ccc(-n3cc(CCNCc4cc(-c5cncc(OC6COC6)n5)ccn4)oc3=O)nc2N1 [Example 2, 6-{5-[2-({4-[6-(oxetan-3-yloxy)-pyrazin-2-yl]-pyridin-2-ylmethyl}-amino)-ethyl]-2-oxo-oxazol-3-yl}-4H-pyrido[3,2-b][1,4]oxazin-3-one]
4 (≈ 7.71 µM) | 1 (≈ 1.93 µM) | 0.5 (≈ 0.964 µM) | 0.25 (≈ 0.482 µM) | – | – | – | – | O=C1COc2ccc(N3C[C@H](CCNCc4cccc(-c5cc(OC6COC6)cnn5)c4)OC3=O)nc2N1 [Example 8, 6-[(S)-5-(2-{3-[5-(oxetan-3-yloxy)-pyridazin-3-yl]-benzylamino}-ethyl)-2-oxo-oxazolidin-3-yl]-4H-pyrido[3,2-b][1,4]oxazin-3-one]
0.125 (≈ 0.233 µM) | 0.125 (≈ 0.233 µM) | ≤ 0.031 | ≤ 0.031 | – | – | – | – | O=C1CSc2ccc(N3C[C@H](CCNCc4cc(-c5nccc(OC6COC6)n5)ccn4)OC3=O)nc2N1 [Example 11, 6-{(S)-5-[2-({4-[4-(oxetan-3-yloxy)-pyrimidin-2-yl]-pyridin-2-ylmethyl}-amino)-ethyl]-2-oxo-oxazolidin-3-yl}-4H-pyrido[3,2-b][1,4]thiazin-3-one]
1 (≈ 1.93 µM) | 1 (≈ 1.93 µM) | 1 (≈ 1.93 µM) | 0.25 (≈ 0.482 µM) | – | – | – | – | O=C1COc2ccc(N3C[C@H](CCNCc4cc(-c5cc(OC6COC6)ccn5)ccn4)OC3=O)nc2N1 [Example 3, 6-[(S)-5-(2-{[4-(oxetan-3-yloxy)-[2,4′]bipyridinyl-2′-ylmethyl]-amino}-ethyl)-2-oxo-oxazolidin-3-yl]-4H-pyrido[3,2-b][1,4]oxazin-3-one]
0.25 (≈ 0.483 µM) | 0.25 (≈ 0.483 µM) | ≤ 0.031 | ≤ 0.031 | – | – | – | – | O=C1COc2ccc(N3C[C@H](CCNCc4cccc(-c5cccc(OC6COC6)n5)c4)OC3=O)nc2N1 [Example 6, 6-[(S)-5-(2-{3-[6-(oxetan-3-yloxy)-pyridin-2-yl]-benzylamino}-ethyl)-2-oxo-oxazolidin-3-yl]-4H-pyrido[3,2-b][1,4]oxazin-3-one]
0.25 (≈ 0.468 µM) | 0.25 (≈ 0.468 µM) | ≤ 0.031 | ≤ 0.031 | – | – | – | – | O=C1CSc2ccc(N3C[C@H](CCNCc4cc(-c5nccc(OC6COC6)n5)ccn4)OC3=O)cc2N1 [Example 12, 6-{(S)-5-[2-({4-[4-(oxetan-3-yloxy)-pyrimidin-2-yl]-pyridin-2-ylmethyl}-amino)-ethyl]-2-oxo-oxazolidin-3-yl}-4H-benzo[1,4]thiazin-3-one]
